Experimental data as given in paper PMC5515969, “Effects of 31 FDA approved small-molecule kinase inhibitors on isolated rat liver mitochondria” (Archives of Toxicology, 2016).
Like-named read-outs stand apart in the source and are kept apart here.

Experiments:
[1] = test system: isolated rat liver mitochondria; test: Mitochondrial oxygen consumption (glutamate/malate or succinate driven, state 4 and state 3); type: biochemical; settings: DMSO treated samples set as 1; for State 3 respiration driven by succinate at 10XCmax: key: 0 indicates that the drug had no effects (negative); for State 3 respiration driven by succinate at 1XCmax: key: 0 indicates that the drug had no effects (negative)
Outline: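 Rat liver mitochondria (1 mg/ml protein) exposed 5 min to kinase inhibitors in 0.1% DMSO, then O2 consumption measured by Clark-type electrode with glutamate/malate or succinate (state 4), ADP added after 3 min (state 3). Rates normalized to 0.1% DMSO controls set to 1.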

[2] = test system: RCC IV; test: RCC IV activity in submitochondrial particles; type: biochemical, rat; design: key to RCC IV at 50XCmax / RCC IV at 100XCmax: activity relative to DMSO-treated controls (control set as 1 = 100%); settings: 50XCmax; relative to DMSO treated samples; in %
Outline: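 Kinase inhibitors were preincubated 15 min with submitochondrial particles (1 mg/ml) before complex activities were measured. RCC I was the rotenone-sensitive portion (activity without minus with rotenone). RCC I/V was read at 340 nm and RCC II at 600 nm every 1 min for 6 min. RCC III and IV were read at 550 nm every 10 s for 2 min. Activities are normalized to DMSO controls set as 1.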

[3] = human therapeutic Cmax at FDA recommended dosages; ref product labeling and drug approval packages at the official FDA website; cited from earlier work
[4] = cited from earlier work
[5] = test system: isolated rat liver mitochondria; test: Mitochondrial inner membrane potential (MMP), Rhodamine 123; type: biochemical; settings: difference in signal between KI and DMSO treated samples at the end of experiments
Text: Fig. 3 KI effects on mitochondrial inner membrane potential (MMP). […] In a, c, data are means and standard derivations from three separate experiments. *p < 0.05 as compared to DMSO-treated samples at the end of experiments. In b, data are means of two independent experiments

[6] = test system: isolated rat liver mitochondria; test: Mitochondrial ROS production (CM-H2DCFDA); settings: DMSO treated samples set as 1
[7] = test system: isolated rat liver mitochondria; settings: positive control alamethicin treated samples
[8] = test system: isolated rat liver mitochondria; test: Mitochondrial swelling (absorbance at 535 nm); type: biochemical; settings: difference in signal between KI and DMSO treated samples at the end of experiments; for Swelling 5XCmax: key: 0 indicates that the drug had no effects (negative)

CCCS(=O)(=O)Nc1ccc(F)c(C(=O)c2c[nH]c3ncc(-c4ccc(Cl)cc4)cc23)c1F [Vemurafenib]
State 3 respiration driven by glutamate/malate at 1XCmax ([1]; 1XCmax): 0 | State 3 respiration driven by succinate at 1XCmax ([1]; 1XCmax): 0 | State 4 respiration driven by glutamate/malate at 1XCmax ([1]; 1XCmax): 0 | State 4 respiration driven by succinate at 1XCmax ([1]; 1XCmax): 0 | State 3 respiration driven by glutamate/malate at 2.5XCmax ([1]; 2.5XCmax): 0 | State 3 respiration driven by succinate at 2.5XCmax ([1]; 2.5XCmax): 0 | State 4 respiration driven by glutamate/malate at 2.5XCmax ([1]; 2.5XCmax): 0 | State 4 respiration driven by succinate at 2.5XCmax ([1]; 2.5XCmax): 0 | State 3 respiration driven by glutamate/malate at 5XCmax ([1]; 5XCmax): 0 | State 3 respiration driven by succinate at 5XCmax ([1]; 5XCmax): 0 | State 4 respiration driven by glutamate/malate at 5XCmax ([1]; 5XCmax): 0 | State 4 respiration driven by succinate at 5XCmax ([1]; 5XCmax): 0 | State 3 respiration driven by glutamate/malate at 10XCmax ([1]; 10XCmax): 0 | State 3 respiration driven by succinate at 10XCmax ([1]; 10XCmax): 0 | State 4 respiration driven by glutamate/malate at 10XCmax ([1]; 10XCmax): 0 | State 4 respiration driven by succinate at 10XCmax ([1]; 10XCmax): 0 | State 3 respiration driven by glutamate/malate at 20XCmax ([1]; 20XCmax): 0 | State 3 respiration driven by succinate at 20XCmax ([1]; 20XCmax): 0 | State 4 respiration driven by glutamate/malate at 20XCmax ([1]; 20XCmax): 0 | State 4 respiration driven by succinate at 20XCmax ([1]; 20XCmax): 0 | State 3 respiration driven by glutamate/malate at 30XCmax ([1]; 30XCmax): 0 | State 3 respiration driven by succinate at 30XCmax ([1]; 30XCmax): 0 | State 4 respiration driven by glutamate/malate at 30XCmax ([1]; 30XCmax): 0 | State 4 respiration driven by succinate at 30XCmax ([1]; 30XCmax): 0 | State 3 respiration driven by glutamate/malate at 50XCmax ([1]; 50XCmax): 0 | State 3 respiration driven by succinate at 50XCmax ([1]; 50XCmax): 0 | State 4 respiration driven by glutamate/malate at 50XCmax ([1]; 50XCmax): 0 | State 4 respiration driven by succinate at 50XCmax ([1]; 50XCmax): 0 | State 3 respiration driven by glutamate/malate at 100XCmax ([1]; 100XCmax): 0 | State 3 respiration driven by succinate at 100XCmax ([1]; 100XCmax): 0 | State 4 respiration driven by glutamate/malate at 100XCmax ([1]; 100XCmax): 0 | State 4 respiration driven by succinate at 100XCmax ([1]; 100XCmax): 0 | RCC IV at 50XCmax [2]: 0 | Cmax [3]: 130 nM | DILI potential (based on labeling) ([4]; 1 = DILI positive, 0 = negative, ref product labeling): 1 | Labeling for DILI ([4]; BBW: black box warning, W&P: Warnings and Precautions, ref product labeling): W&P: functional hepatic impairment | labeling for DILI ([4]; W&P warnings and precautions, BBW black box warnings, ref FDA product labeling): W&P: hepatic impairment/ALT monitoring | DILI potential (based on labeling) ([4]; ref FDA product labeling): 1 | MMP measured by Rhodamine 123 at 1XCmax ([5]; 1XCmax): 0 | MMP measured by Rhodamine 123 at 2.5XCmax ([5]; 2.5XCmax): 0 | MMP measured by Rhodamine 123 at 5XCmax ([5]; 5XCmax): 0 | MMP measured by Rhodamine 123 at 10XCmax ([5]; 10XCmax): 0 | MMP measured by Rhodamine 123 at 20XCmax ([5]; 20XCmax): 0 | MMP measured by Rhodamine 123 at 30XCmax ([5]; 30XCmax): 0 | MMP measured by Rhodamine 123 at 50XCmax ([5]; 50XCmax): 0 | MMP measured by Rhodamine 123 at 100XCmax ([5]; 100XCmax): 0 | ROS measured by CM-H2DCFDA at 1XCmax ([6]; 1XCmax): 0 | ROS measured by CM-H2DCFDA at 2.5XCmax ([6]; 2.5XCmax): 0 | ROS measured by CM-H2DCFDA at 5XCmax ([6]; 5XCmax): 0 | ROS measured by CM-H2DCFDA at 10XCmax ([6]; 10XCmax): 0 | ROS measured by CM-H2DCFDA at 20XCmax ([6]; 20XCmax): 0 | ROS measured by CM-H2DCFDA at 30XCmax ([6]; 30XCmax): 0 | ROS measured by CM-H2DCFDA at 50XCmax ([6]; 50XCmax): 0 | ROS measured by CM-H2DCFDA at 100XCmax ([6]; 100XCmax): 0 | Cytochrome c release 1XCmax ([7]; 1XCmax): 0 | Cytochrome c release 2.5XCmax ([7]; 2.5XCmax): 0 | Cytochrome c release 5XCmax ([7]; 5XCmax): 0 | Cytochrome c release 10XCmax ([7]; 10XCmax): 0 | Cytochrome c release 20XCmax ([7]; 20XCmax): 0 | Cytochrome c release 30XCmax ([7]; 30XCmax): 0 | Cytochrome c release 50XCmax ([7]; 50XCmax): 0 | Cytochrome c release 100XCmax ([7]; 100XCmax): 0 | Swelling 1XCmax ([8]; 1XCmax): 0 | Swelling 2.5XCmax ([8]; 2.5XCmax): 0 | Swelling 5XCmax ([8]; 5XCmax): 0 | Swelling 10XCmax ([8]; 10XCmax): 0 | Swelling 20XCmax ([8]; 20XCmax): 0 | Swelling 30XCmax ([8]; 30XCmax): 0 | Swelling 50XCmax ([8]; 50XCmax): 0 | Swelling 100XCmax ([8]; 100XCmax): 0
